Assay results reported in ChEMBL document CHEMBL3885861, “Open TG-GATES”.

Species on record: Rattus norvegicus
Experiment: Open TG-GATES - Regimen: Single
Assay type: toxicity, organism-based, Sprague-Dawley
Design: regimen Single, gender Male, age 6 weeks
Details: in vivo, po, route gavage; for gamma-GTP / ALP / ALT / AST / BUN / CRE / Ca / DBIL / GLC / IP / K / LDH / Na / PL / RALB / TBIL / TC / TG / TP: tissue Plasma; for APTT / Bas / Eos / Fbg / Hb / Ht / Lym / MCH / MCHC / MCV / Mono / Neu / PT / Plat / RBC / Ret / WBC: tissue Blood; for KIDNEY_L / KIDNEY_R / KIDNEY_TOTAL: tissue Kidney; for LIVER: tissue Liver

## CSc1ccc2c(c1)N(CCC1CCCCN1C)c1ccccc1S2 (stereo not drawn) [THIORIDAZINE]
0 mg/kg, 24 h, dose level Control
  gamma-GTP: 1.2 IU/L
10 mg/kg, 3 h, dose level Low
  TERMINAL_BW: 216.5 g
  APTT: 16.2 s
  Bas: 0%
  Eos: 0.6%
  Fbg: 201 mg/dL
  Hb: 12.6 g/dL
  Ht: 37.5%
  Lym: 77%
  MCH: 22.5 pg
  MCHC: 33.6%
  MCV: 67.1 fL
  Mono: 9.8%
  Neu: 13%
  PT: 12.2 s
  Plat: 94.9 x10_4/uL
  RBC: 560.4 x10_4/ul
  Ret: 8%
  WBC: 87.7 x10_2/uL
  KIDNEY_L: 1 g
  KIDNEY_R: 1 g
  KIDNEY_TOTAL: 2 g
  LIVER: 10.5 g
  ALP: 973.8 IU/L
  ALT: 36.8 IU/L
  AST: 65.4 IU/L
  BUN: 13.2 mg/dL
  CRE: 0.5 mg/dL
  Ca: 11.2 mg/dL
  DBIL: 0.016 mg/dL
  GLC: 205.6 mg/dL
  IP: 10.7 mg/dL
  K: 5.1 meq/L
  LDH: 95 IU/L
  Na: 139.4 meq/L
  PL: 140.2 mg/dL
  RALB: 3.7 g/dL
  TBIL: 0.3 mg/dL
  TC: 76.8 mg/dL
  TG: 69.2 mg/dL
  TP: 5.3 g/dL
  gamma-GTP: 0.8 IU/L
10 mg/kg, 6 h, dose level Low
  TERMINAL_BW: 214.5 g
  APTT: 16.8 s
  Bas: 0%
  Eos: 1%
  Fbg: 210.6 mg/dL
  Hb: 13.1 g/dL
  Ht: 39%
  Lym: 78.8%
  MCH: 22 pg
  MCHC: 33.5%
  MCV: 65.8 fL
  Mono: 8.6%
  Neu: 12%
  PT: 12.2 s
  Plat: 109 x10_4/uL
  RBC: 593 x10_4/ul
  Ret: 8.6%
  WBC: 129.7 x10_2/uL
  KIDNEY_L: 1 g
  KIDNEY_R: 1 g
  KIDNEY_TOTAL: 2 g
  ALP: 779.8 IU/L
  ALT: 27.6 IU/L
  AST: 62.4 IU/L
  BUN: 11.8 mg/dL
  CRE: 0.5 mg/dL
  Ca: 10.8 mg/dL
  DBIL: 0.022 mg/dL
  GLC: 192.4 mg/dL
  IP: 10.2 mg/dL
  K: 4.9 meq/L
  LDH: 94 IU/L
  Na: 138.8 meq/L
  PL: 136.4 mg/dL
  RALB: 3.7 g/dL
  TBIL: 0.4 mg/dL
  TC: 71.6 mg/dL
  TG: 60.2 mg/dL
  TP: 5.4 g/dL
  gamma-GTP: 3.2 IU/L
10 mg/kg, 9 h, dose level Low
  TERMINAL_BW: 213.3 g
  APTT: 16.6 s
  Bas: 0%
  Eos: 1%
  Fbg: 209.6 mg/dL
  Hb: 12.7 g/dL
  Ht: 38.5%
  Lym: 72.4%
  MCH: 21.3 pg
  MCHC: 33.1%
  MCV: 64.5 fL
  Mono: 6.4%
  Neu: 20.6%
  PT: 12.3 s
  Plat: 105.4 x10_4/uL
  RBC: 598.2 x10_4/ul
  Ret: 8.1%
  WBC: 80.7 x10_2/uL
  KIDNEY_L: 1 g
  KIDNEY_R: 1 g
  KIDNEY_TOTAL: 2.1 g
  LIVER: 9.6 g
  ALP: 749.8 IU/L
  ALT: 29.4 IU/L
  AST: 64.4 IU/L
  BUN: 11.2 mg/dL
  CRE: 0.6 mg/dL
  Ca: 10.8 mg/dL
  DBIL: 0.034 mg/dL
  GLC: 195.4 mg/dL
  IP: 10.7 mg/dL
  K: 5.1 meq/L
  LDH: 66.8 IU/L
  Na: 140 meq/L
  PL: 142.2 mg/dL
  RALB: 3.8 g/dL
  TBIL: 0.4 mg/dL
  TC: 77.4 mg/dL
  TG: 31.4 mg/dL
  TP: 5.3 g/dL
  gamma-GTP: 1.6 IU/L
10 mg/kg, 24 h, dose level Low
  TERMINAL_BW: 232.6 g
  APTT: 16.5 s
  Bas: 0%
  Eos: 1%
  Fbg: 215.4 mg/dL
  Hb: 13 g/dL
  Ht: 39.1%
  Lym: 80.4%
  MCH: 21.8 pg
  MCHC: 33.3%
  MCV: 65.3 fL
  Mono: 6.6%
  Neu: 11.8%
  PT: 12.2 s
  RBC: 599.2 x10_4/ul
  Ret: 8.2%
  WBC: 132.3 x10_2/uL
  KIDNEY_L: 1 g
  KIDNEY_R: 1 g
  KIDNEY_TOTAL: 2 g
  LIVER: 11.9 g
  ALP: 799.2 IU/L
  ALT: 39.6 IU/L
  AST: 68.6 IU/L
  BUN: 19 mg/dL
  CRE: 0.5 mg/dL
  Ca: 11.3 mg/dL
  DBIL: 0.074 mg/dL
  GLC: 193.6 mg/dL
  IP: 8.7 mg/dL
  K: 4.9 meq/L
  LDH: 77.4 IU/L
  Na: 138.2 meq/L
  PL: 154.8 mg/dL
  RALB: 4 g/dL
  TBIL: 0.4 mg/dL
  TC: 81 mg/dL
  TG: 116.8 mg/dL
  TP: 5.8 g/dL
  gamma-GTP: 1.4 IU/L
